These compounds were tested against T1, CD73 (Homo sapiens, UniProt P21589) (assay: Example A1: Biochemical Assay (CD73 inhibition, Malachite Green detection of AMP hydrolysis)). Conditions: CD73 0.3208 nM, AMP 15 μM, Tris-HCl pH 7.4, Malachite Green, absorbance 620 nm; read-out: Biochemical IC50.
T1 sequence (P21589 27-549): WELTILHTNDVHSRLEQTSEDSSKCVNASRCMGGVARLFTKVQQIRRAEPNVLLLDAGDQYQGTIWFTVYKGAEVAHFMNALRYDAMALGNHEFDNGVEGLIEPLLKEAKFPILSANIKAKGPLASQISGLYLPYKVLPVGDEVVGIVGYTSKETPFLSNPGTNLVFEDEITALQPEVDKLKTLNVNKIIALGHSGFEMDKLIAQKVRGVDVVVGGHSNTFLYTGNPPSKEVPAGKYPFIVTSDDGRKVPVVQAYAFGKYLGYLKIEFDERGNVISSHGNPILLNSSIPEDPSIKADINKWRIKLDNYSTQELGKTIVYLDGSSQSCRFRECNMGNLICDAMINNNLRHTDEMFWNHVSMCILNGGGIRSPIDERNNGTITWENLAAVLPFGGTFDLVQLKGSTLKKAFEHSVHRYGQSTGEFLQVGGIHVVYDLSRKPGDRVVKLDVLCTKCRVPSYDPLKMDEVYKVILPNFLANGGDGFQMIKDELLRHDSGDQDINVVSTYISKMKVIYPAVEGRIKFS
Description: Example A1: Biochemical Assay
Assay Reaction Conditions
• Assay Volume: 70 μl • Reaction Volume: 50 μl • CD73: 0.3208 nM • AMP: 15 μM • Assay Buffer: 2 5 mM Tris-HCL, pH 7.4, 0.01% Brij-35, 0.01% BSA, 5 mM MgCl2 Assay Procedure:
Made dose titration of testing compounds in assay buffer, 10 points ½ log titrations in duplicates starting at 100 μM.
Added 25 μl of CD73 to each well for a final concentration of […].
Incubated at RT for 15 min.
Added 25 μl of AMP to each well for a final concentration of 15 μM.
Incubated at RT for 10 min.
Added 10 μl of Malachite Green Reagent A, incubate at RT for 10 min.
Added 10 μl of Malachite Green Reagent B, incubate at RT for 45 min.
Read the Absorbance on Envision plate reader using excitation filter: Cy5 […].
The ability of the compounds disclosed herein to inhibit CD73 activity was quantified and the respective IC50 values were determined. Table 1 provides the biochemical IC50 values of compounds disclosed herein.

Row | SMILES | IC50 [µM]
1 | CN(c1nc(Cl)nc2c1nnn2[C@@H]1O[C@H](COP(=O)(O)CP(=O)(O)O)[C@@H](O)[C@H]1O)[C@H]1CCc2ccccc21 [Example 18, (((((2R,3S,4R,5R)-5-(5-chloro-7-(((S)-2,3-dihydro-1H-inden-1-yl)(methyl)amino)-3H-[1,2,3]triazolo[4,5-d]pyrimidin-3-yl)-3,4-dihydroxytetrahydrofuran-2-yl)methoxy)(hydroxy)phosphoryl)methyl) phosphonic acid] | < 0.1
2 | CN(c1nc(Cl)nc2c1nnn2[C@@H]1O[C@H](COP(=O)(O)CP(=O)(O)O)[C@@H](O)[C@H]1O)[C@@H]1CCc2ccccc21 [Example 19, (((((2R,3S,4R,5R)-5-(5-chloro-7-(((R)-2,3-dihydro-1H-inden-1-yl)(methyl)amino)-3H-[1,2,3]triazolo[4,5-d]pyrimidin-3-yl)-3,4-dihydroxytetrahydrofuran-2-yl)methoxy)(hydroxy)phosphoryl)methyl) phosphonic acid] | < 0.1
3 | COP(=O)(CP(=O)(O)O)OC[C@H]1O[C@@H](n2nnc3c(N(C)[C@H]4CCc5ccccc54)nc(Cl)nc32)[C@H](O)[C@@H]1O (stereo partly drawn) [Example 24, (((((2R,3S,4R,5R)-5-(5-Chloro-7-(((S)-2,3-dihydro-1H-inden-1-yl)(methyl)amino)-3H-[1,2,3]triazolo[4,5-d]pyrimidin-3-yl)-3,4-dihydroxytetrahydrofuran-2-yl)methoxy)(methoxy)phosphoryl)methyl)phosphonic acid] | < 0.1
4 | CCOP(=O)(CP(=O)(O)O)OC[C@H]1O[C@@H](n2nnc3c(NCc4ccccc4Cl)nc(Cl)nc32)[C@H](O)[C@@H]1O (stereo partly drawn) [Example 25, (((((2R,3S,4R,5R)-5-(5-chloro-7-((2-chlorobenzyl)amino)-3H-[1,2,3]triazolo[4,5-d]pyrimidin-3-yl)-3,4-dihydroxytetrahydrofuran-2-yl)methoxy)(ethoxy)phosphoryl)methyl) phosphonic acid] | 0.1 to 1
5 | COP(=O)(CP(=O)(O)O)OC[C@H]1O[C@@H](n2nnc3c(NCc4ccccc4Cl)nc(Cl)nc32)[C@H](O)[C@@H]1O (stereo partly drawn) [Example 26, (((((2R,3S,4R,5R)-5-(5-chloro-7-((2-chlorobenzyl)amino)-3H-[1,2,3]triazolo[4,5-d]pyrimidin-3-yl)-3,4-dihydroxytetrahydrofuran-2-yl)methoxy)(methoxy)phosphoryl)methyl) phosphonic acid] | 0.1 to 1

The next lines start with the values.

Row | IC50 [µM] | SMILES
6 | < 0.1 | O=P(O)(O)CP(=O)(O)OC[C@H]1O[C@@H](n2nnc3c(N[C@H]4CCc5ccccc54)nc(Cl)nc32)[C@H](O)[C@@H]1O [Example 20, (((((2R,3S,4R,5R)-5-(5-chloro-7-(((S)-2,3-dihydro-1H-inden-1-yl)amino)-3H-[1,2,3]triazolo[4,5-d]pyrimidin-3-yl)-3,4-dihydroxytetrahydrofuran-2-yl)methoxy)(hydroxy)phosphoryl)methyl) phosphonic acid]
7 | < 0.1 | CN(Cc1ccccc1Cl)c1nc(Cl)nc2c1nnn2[C@@H]1C[C@H](COP(=O)(O)CP(=O)(O)O)[C@@H](O)[C@H]1O [Example 21, (((((1R,2R,3S,4R)-4-(5-chloro-7-((2-chlorobenzyl)(methyl)amino)-3H-[1,2,3]triazolo[4,5-d]pyrimidin-3-yl)-2,3-dihydroxycyclopentyl)methoxy)(hydroxy)phosphoryl)methyl)phosphonic acid]
8 | 0.1 to 1 | CN(Cc1ccccc1)c1nc(Cl)nc2c1nnn2[C@@H]1O[C@H](COP(=O)(O)CP(=O)(O)O)C[C@H]1O [Example 22, (((((2S,4R,5R)-5-(7-(benzyl(methyl)amino)-5-chloro-3H-[1,2,3]triazolo[4,5-d]pyrimidin-3-yl)-4-hydroxytetrahydrofuran-2-yl)methoxy)(hydroxy)phosphoryl)methyl)phosphonic acid]
9 | < 0.1 | O=P(O)(O)CP(=O)(O)OC[C@@H]1C[C@@H](O)[C@H](n2nnc3c(NCc4ccccc4Cl)nc(Cl)nc32)O1 [Example 23, (((((2S,4R,5R)-5-(5-chloro-7-((2-chlorobenzyl)amino)-3H-[1,2,3]triazolo[4,5-d]pyrimidin-3-yl)-4-hydroxytetrahydrofuran-2-yl)methoxy)(hydroxy)phosphoryl)methyl)phosphonic acid]
